# Tests used:
# [1] = test system: HOS-FRα; assay: EC17 dose response, specific lysis in co-culture with E2-CAR-T cells (LDH assay); format: cell-based, human; details: 24 hours co-culture
# Method: (§1) After 24 hours of co-culture, supernatants were harvested to determine tumor cell killing. To study the kinetics of T cell activation and FR correlation in vitro (FIG. 60A, FIG. 60B, FIG. 60C, FIG. 60D, FIG. 60E), co-cultures were carried out in FR+/− cell lines at varying E/T ratios (1:27, 1:9, 1:3, 1:1, 3:1) in the continuous presence of 10 nM EC17. The kinetics of tumor cell killing were quantified after 16 and 48 hours of co-culture. Meanwhile, a portion of the supernatants was taken after 44 hours of co-culture for measurement of IFNg, IL-2 and TNFα. Using Promega's CytoTox 96® LDH assay kit, target cell killing was quantified and expressed as specific lysis (%) which was normalized to basal levels in the absence of EC17 at defined E/T ratios. The LEGENDplex™ human Th1 cytokine panel (BioLegend, San Diego, Calif.) was used to determine CAR-T cell derived cytokines.
# (§2) To study the robustness of CAR-T cell activation, 5 FR+ cell lines (KB, MDA-MB-231, HOS-FRα, THP1-FRβ, OV90) were used along with a wide range of EC17 concentration (0.1 pM to 100 μM) at an E/T ratio of 1:1 (FIG. 59A, FIG. 59B). Specific lysis (%) was quantified by Promega's LDH cytotoxicity assay kit after 24 hours of co25 culture. In all cell lines, EC17-dependent cytolysis followed a bell-shaped dose response with a somewhat broad concentration plateau (˜0.1 nM to […]) (FIG. 59A). […] However, maximal lysis obtained for each cell line ranked differently at 45% (MDA-MB-231), 27% (THP1-FRb), 18% (HOS-FRα), 15% (OV90) and 11% (KB) (FIG. 59B).
# [2] = test system: OV90; assay: as above; format: cell-based, human; details: 24 hours co-culture
# Method: as §1, §2
# [3] = test system: THP1-FRβ; assay: as above; format: cell-based, human; details: 24 hours co-culture
# Method: as §1, §2
# [4] = test system: MDA-MB-231; assay: as above; format: cell-based, human; details: 24 hours co-culture
# Method: as §1, §2
# [5] = test system: KB; assay: as above; format: cell-based, human; details: 24 hours co-culture
# Method: as §1, §2
# [6] = molecular target: T1, FRα (KB) (Homo sapiens, UniProt P15328); assay: 3H-EC17 cell-based radioligand binding assay, KB cells; details: 2 h at 37° C.
# T1 construct: endogenous in cells; host or cells: KB cells (human cervical carcinoma with HeLa markers)
# Method: The bispecific affinities of EC17 CAM were assessed using ^3H-EC17 in cell-based radioligand binding assays. For binding to FR+ targets, KB and CHO-β cells were pre-seeded overnight in 24-well tissue culture plates and incubated with 0.1, 0.5, 1, 5, 10, 20, and 40 nM of ^3H-EC17 in FFRPMI for 2 h at 37° C. Afterwards, the cells were rinsed with phosphate-buffered saline (PBS, pH 7.4) and lysed with 1% sodium dodecylsulfate. The whole cell lysates were quantitated for the level of radioactivity and cellular protein content by standard Pierce BCA protein assay. The number of ^3H-EC17 molecules bound per cell was calculated to determine the dissociation constants (Kd) for FRα (KB) and FRβ (CHO-b) respectively (FIG. 56A, FIG. 56B).
# [7] = test system: HOS-FRα tumor; assay: CRS toxicity and sodium fluorescein rescue in HOS-FRα tumor-bearing mice; format: in vivo; details: ~2.5 million CD8 and ~33 million CD4 E2 CAR-T cells; days 4 and 11, after EC17 500 and 100 nmol/kg on days 3 and 10
# Method: All animal care and use were performed according to NIH guidelines and in compliance with protocols approved by the Purdue University Animal Use and Care Committee. Female 4 to 5-week-old NOD/SCID gamma (NSG™) mice (stock number: 005557) were purchased from The Jackson Laboratory (Bar Harbor, Me.). Unless specifically indicated, all animals were maintained on a FA-deficient diet (TestDiet, St. Louis, Mo.) upon arrival and throughout the study. To establish subcutaneous xenografts, MDA-MB-231 and HOS-FRα were implanted in the right flank region at 2.5×10^6 and 1×10^6 cells per animal, respectively. For intravenous xenografts, THP1-FRb cells were inoculated at 5×10^6 cells per animal. Subcutaneous tumors were measured 2-3 times per week with a caliper and calculated using the ellipsoidal formula […]. […] All animal doses (CAR-T cells, EC17, sodium fluorescein) were given intravenously.
# Depending on the CAR-T cell dose and how EC17 is administered, tumor-bearing mice receiving FITC-specific CAR-T cells can experience severe CRS and varying degrees of body weight loss. […] On the days immediately following each EC17 dose, animals were scored and rescue agents such as sodium fluorescein, folic acid and leucovorin were used to mitigate CRS toxicity. […]
# [8] = Homo sapiens, EC17, E/T 1:1, curve fitted up to 100 nM, read-out: half-maximal effective concentration (EC50), specific lysis
# T1 sequence (P15328 25-234): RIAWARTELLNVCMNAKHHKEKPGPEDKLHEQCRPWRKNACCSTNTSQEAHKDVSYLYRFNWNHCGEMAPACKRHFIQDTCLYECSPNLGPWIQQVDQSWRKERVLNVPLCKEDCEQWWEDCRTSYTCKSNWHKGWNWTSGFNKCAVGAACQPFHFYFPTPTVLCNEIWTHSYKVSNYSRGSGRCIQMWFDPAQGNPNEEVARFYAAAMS
compound,measurement,setting,value
"NC1=NC2N=CC(CNc3ccc(C(=O)N[C@@H](CCC(=O)NCCNC(=S)Nc4ccc(-c5c6ccc(=O)cc-6oc6cc(O)ccc56)c(C(=O)O)c4)C(=O)O)cc3)=NC2C(=O)N1 (stereo partly drawn) [EC17, FA-(g)-ethylenediamine-FITC]",maximal lysis,[1]; E/T 1:1,18%
same,EC50,[1]; [8],30 pM
same,maximal lysis,[2]; E/T 1:1,15%
same,EC50,"[2]; Homo sapiens, OV-90, E/T 1:1, curve fitted up to 100 nM, read-out: half-maximal effective concentration (EC50), specific lysis",418 pM
same,maximal lysis,[3]; E/T 1:1,27%
same,EC50,[3]; [8],15 pM
same,maximal lysis,[4]; E/T 1:1,45%
same,EC50,"[4]; Homo sapiens, MDA-MB-231, E/T 1:1, curve fitted up to 100 nM, read-out: half-maximal effective concentration (EC50), specific lysis",4.5 pM
same,maximal lysis,[5]; E/T 1:1,11%
same,EC50,"[5]; Homo sapiens, KB, E/T 1:1, curve fitted up to 100 nM, read-out: half-maximal effective concentration (EC50), specific lysis",5.3 pM
same,Kd,[6],1700 pM
same,CRS grade,[7],1-2

# Reference: US11311576B2, “Methods of use for CAR T cells” (Seattle Children's Hospital, priority 2018, dated 2022)
